Our source for the Kd values is publication PMC10887160, “Phanogracilins A–C, New Bibenzochromenones of Crinoid Phanogenia gracilis (Hartlaub, 1890)” (Biomolecules, 2024).

Bounds are passed on as bounds.

The target in test [1] is Mycobacterium tuberculosis CYP142 (Mycobacterium tuberculosis, UniProt P9WPL5). The test is described as follows: surface plasmon resonance. The class given is binding.
Test [2] concerns the target T1, Mycobacterium tuberculosis CYP126 (Mycobacterium tuberculosis, UniProt P9WPN9). The test is described as follows: surface plasmon resonance. In kind it is binding. For orientation: SPR reads the build-up and loss of mass on a sensor chip optically.
Test [3] addresses T2, Candida glabrata CYP51 (Nakaseomyces glabratus, UniProt P50859).
T2 construct: gene ERG11; recombinant, immobilised on CM5 SPR chip
The test is described as follows: surface plasmon resonance. In kind it is binding.

The target in test [4] is T3, Mycobacterium tuberculosis CYP51 (Mycobacterium tuberculosis, UniProt P9WPP9). The test is described as follows: surface plasmon resonance. In kind it is binding.
T3 sequence (P9WPP9 whole entry): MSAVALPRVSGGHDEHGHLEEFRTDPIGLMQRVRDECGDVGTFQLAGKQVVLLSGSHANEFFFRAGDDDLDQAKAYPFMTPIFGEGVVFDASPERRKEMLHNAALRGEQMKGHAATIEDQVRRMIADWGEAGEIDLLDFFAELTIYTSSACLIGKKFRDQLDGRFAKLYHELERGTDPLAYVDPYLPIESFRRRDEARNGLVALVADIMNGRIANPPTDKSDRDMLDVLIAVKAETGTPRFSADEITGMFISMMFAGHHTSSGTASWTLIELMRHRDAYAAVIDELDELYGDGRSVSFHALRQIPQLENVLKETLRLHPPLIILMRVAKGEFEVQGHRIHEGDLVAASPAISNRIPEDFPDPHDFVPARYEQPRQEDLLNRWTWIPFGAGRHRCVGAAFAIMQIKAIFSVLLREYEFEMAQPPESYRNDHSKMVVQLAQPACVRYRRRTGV
In test [5] the target is Mycobacterium tuberculosis CYP124 (Mycobacterium tuberculosis, UniProt P9WPP3). The test is described as follows: surface plasmon resonance. In kind it is binding.
Chain of Mycobacterium tuberculosis CYP124 (P9WPP3 whole entry): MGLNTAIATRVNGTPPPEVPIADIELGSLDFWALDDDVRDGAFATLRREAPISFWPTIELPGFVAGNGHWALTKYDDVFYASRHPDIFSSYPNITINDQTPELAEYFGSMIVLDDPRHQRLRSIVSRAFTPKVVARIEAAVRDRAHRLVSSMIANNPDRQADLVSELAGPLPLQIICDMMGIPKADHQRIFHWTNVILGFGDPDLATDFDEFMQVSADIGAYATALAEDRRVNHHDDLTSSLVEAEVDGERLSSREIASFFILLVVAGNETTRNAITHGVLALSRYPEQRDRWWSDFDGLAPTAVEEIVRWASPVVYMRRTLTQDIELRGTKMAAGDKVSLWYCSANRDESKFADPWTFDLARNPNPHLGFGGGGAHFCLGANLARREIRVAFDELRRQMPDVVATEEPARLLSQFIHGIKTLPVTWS
A further test addresses T4, Homo sapiens CYP51 (Homo sapiens, UniProt Q16850).
T4 construct: gene CYP51A1; recombinant, immobilised on CM5 SPR chip
T4 sequence (Q16850 1-509): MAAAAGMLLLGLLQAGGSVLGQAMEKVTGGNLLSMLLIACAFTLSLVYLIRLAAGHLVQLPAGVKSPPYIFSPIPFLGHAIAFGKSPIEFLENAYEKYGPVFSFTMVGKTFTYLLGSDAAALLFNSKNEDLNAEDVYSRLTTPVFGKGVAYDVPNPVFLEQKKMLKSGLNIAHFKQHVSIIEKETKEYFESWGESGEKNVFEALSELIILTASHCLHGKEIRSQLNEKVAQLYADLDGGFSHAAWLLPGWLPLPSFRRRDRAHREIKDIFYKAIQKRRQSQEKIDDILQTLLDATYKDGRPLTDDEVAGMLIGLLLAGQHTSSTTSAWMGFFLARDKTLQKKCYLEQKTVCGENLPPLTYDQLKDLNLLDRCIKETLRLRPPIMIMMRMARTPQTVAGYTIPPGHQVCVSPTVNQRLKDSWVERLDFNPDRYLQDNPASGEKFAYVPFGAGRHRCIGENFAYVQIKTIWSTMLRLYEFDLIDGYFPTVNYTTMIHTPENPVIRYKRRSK
The test is described as follows: surface plasmon resonance. In kind it is binding.

The next test addresses T5, Candida albicans CYP51 (Candida albicans, UniProt P10613).
T5 construct: gene ERG11; recombinant, immobilised on CM5 SPR chip
The test is described as follows: surface plasmon resonance. In kind it is binding.

Test [6] has as its target T1, Mycobacterium tuberculosis CYP126. The test is described as follows: biochemical. Set-up: SPR (Biacore, CM5 chip, immobilised CYP), two-state reaction model, global fit KD. How it is done: (§1) Cytochrome P450 and steroid dehydrogenases are pharmaceutically significant drug targets. However, for most of these targets, there is no effective, selective and safe regulator. In this regard, many laboratories and pharmaceutical companies around the world are working on producing selective modulators of cytochrome P450 and human steroid dehydrogenase. […] Injection of a solution of ligands (studied CYPs) in immobilization buffer (10 mM sodium acetate, pH 4.5 in the case of CYP51 Candida albicans and Candida glabrata; 10 mM sodium acetate, pH 5.0 in the case of all other CYPs) was carried out for 5 min at flow rate 5 µL/min. After this, the chip was incubated for 1 hour in a docked state in the “Stand By” device mode at a measuring cell temperature of 25°C, which led to the hydrolysis of unreacted activated dextran groups. Table S4. The amount of the ligand immobilized on the chip. MT - Mycobacterium tuberculosis, human - Homo sapiens, Calb - Candida albicans, Cglab - Candida glabrata Ligands The amount of the ligand immobilized, RU CYP51_MT 5499 CYP124_MT 3315 CYP125_MT 5730 CYP126_MT 4590 CYP142_MT 2445 CYP51_human 8286 CYP51_Calb 2603 CYP51_Cglab 4888

For test [7], the target named is T6, Mycobacterium tuberculosis CYP125 (Mycobacterium tuberculosis, UniProt P9WPP1). The test is described as follows: biochemical. Set-up: SPR (Biacore, CM5 chip, immobilised CYP), two-state reaction model, global fit KD. How it is done:
as §1

Test [8] has as its target T3, Mycobacterium tuberculosis CYP51. The test is described as follows: biochemical. The arrangement: SPR (Biacore, CM5 chip, immobilised CYP), two-state reaction model, global fit KD. How it is done: as §1
Test [9] addresses T2, Candida glabrata CYP51. The test is described as follows: biochemical. The arrangement: SPR (Biacore, CM5 chip, immobilised CYP), two-state reaction model, global fit KD. As to conditions: SPR, two-state model; read-out: KD (мкM). How it is done: as §1
Test [10] addresses T6, Mycobacterium tuberculosis CYP125. The test is described as follows: surface plasmon resonance. In kind it is binding.

T1 sequence (P9WPN9 whole entry): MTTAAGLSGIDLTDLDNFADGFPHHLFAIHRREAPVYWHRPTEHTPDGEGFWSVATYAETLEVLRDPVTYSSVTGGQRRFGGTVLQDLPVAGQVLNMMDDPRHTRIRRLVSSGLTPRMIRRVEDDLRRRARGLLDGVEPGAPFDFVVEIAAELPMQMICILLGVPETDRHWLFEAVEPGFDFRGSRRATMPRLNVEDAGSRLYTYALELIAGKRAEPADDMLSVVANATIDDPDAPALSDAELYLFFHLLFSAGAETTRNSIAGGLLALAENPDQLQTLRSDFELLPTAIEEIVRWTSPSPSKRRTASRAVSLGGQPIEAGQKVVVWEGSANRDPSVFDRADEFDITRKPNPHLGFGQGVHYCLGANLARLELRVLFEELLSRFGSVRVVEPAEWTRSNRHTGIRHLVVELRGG
T2 sequence (P50859 whole entry): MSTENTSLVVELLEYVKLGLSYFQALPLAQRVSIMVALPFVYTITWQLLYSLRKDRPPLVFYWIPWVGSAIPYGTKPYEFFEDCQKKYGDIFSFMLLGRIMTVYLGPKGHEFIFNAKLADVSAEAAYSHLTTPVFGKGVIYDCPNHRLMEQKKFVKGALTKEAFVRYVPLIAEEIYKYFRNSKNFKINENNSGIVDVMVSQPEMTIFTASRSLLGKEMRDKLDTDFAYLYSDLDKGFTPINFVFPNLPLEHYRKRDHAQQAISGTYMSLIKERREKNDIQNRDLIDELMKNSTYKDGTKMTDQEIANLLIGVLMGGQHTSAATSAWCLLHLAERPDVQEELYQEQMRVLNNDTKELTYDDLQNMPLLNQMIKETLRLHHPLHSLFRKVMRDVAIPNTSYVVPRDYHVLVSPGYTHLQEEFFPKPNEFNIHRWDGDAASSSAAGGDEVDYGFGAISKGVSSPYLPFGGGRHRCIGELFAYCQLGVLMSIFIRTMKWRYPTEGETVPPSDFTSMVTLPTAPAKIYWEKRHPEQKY
T6 sequence (P9WPP1 whole entry): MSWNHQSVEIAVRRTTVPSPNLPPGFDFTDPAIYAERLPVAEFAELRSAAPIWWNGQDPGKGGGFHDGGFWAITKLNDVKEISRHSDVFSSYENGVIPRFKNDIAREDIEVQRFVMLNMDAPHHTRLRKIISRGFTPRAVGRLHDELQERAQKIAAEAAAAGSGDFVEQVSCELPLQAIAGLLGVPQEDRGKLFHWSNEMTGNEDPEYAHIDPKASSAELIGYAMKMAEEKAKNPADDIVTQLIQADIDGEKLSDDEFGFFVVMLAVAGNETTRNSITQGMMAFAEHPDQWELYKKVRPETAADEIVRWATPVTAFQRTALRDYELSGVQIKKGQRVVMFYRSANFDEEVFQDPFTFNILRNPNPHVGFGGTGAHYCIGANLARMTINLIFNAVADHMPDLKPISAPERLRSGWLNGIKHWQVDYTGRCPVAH
T5 sequence (P10613 whole entry): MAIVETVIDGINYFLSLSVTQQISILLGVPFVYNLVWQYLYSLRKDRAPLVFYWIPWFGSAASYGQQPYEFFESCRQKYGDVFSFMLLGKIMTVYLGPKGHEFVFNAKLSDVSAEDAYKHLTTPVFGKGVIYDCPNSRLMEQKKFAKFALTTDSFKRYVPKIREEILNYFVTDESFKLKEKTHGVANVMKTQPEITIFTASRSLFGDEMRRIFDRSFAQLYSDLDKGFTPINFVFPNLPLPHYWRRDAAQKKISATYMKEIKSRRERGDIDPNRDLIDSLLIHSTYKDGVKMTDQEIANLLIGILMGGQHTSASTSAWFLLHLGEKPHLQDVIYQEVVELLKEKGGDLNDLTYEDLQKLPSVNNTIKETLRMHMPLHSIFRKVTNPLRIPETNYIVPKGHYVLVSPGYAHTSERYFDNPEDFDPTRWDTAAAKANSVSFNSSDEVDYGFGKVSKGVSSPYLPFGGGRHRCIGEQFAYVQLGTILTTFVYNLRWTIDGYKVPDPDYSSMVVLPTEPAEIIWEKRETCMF
Chain of Mycobacterium tuberculosis CYP142 (P9WPL5 whole entry): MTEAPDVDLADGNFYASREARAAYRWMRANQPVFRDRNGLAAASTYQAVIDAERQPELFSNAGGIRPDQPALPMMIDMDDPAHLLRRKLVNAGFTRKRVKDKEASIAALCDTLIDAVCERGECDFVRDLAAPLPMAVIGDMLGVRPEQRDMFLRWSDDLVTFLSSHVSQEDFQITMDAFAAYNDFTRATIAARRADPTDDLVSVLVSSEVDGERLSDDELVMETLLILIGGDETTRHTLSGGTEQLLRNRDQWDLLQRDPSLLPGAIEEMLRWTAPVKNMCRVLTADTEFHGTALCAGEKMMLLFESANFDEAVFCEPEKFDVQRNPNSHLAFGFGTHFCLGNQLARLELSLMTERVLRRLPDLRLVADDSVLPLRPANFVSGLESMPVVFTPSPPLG

Usually Kd stands for the concentration at which binding is half-saturated. For the compound `CCCc1cc(=O)c2c(O)c3c(O)c(-c4c(O)cc(O)c5c(O)c6c(=O)cc(CCC)oc6cc45)c(O)cc3cc2o1` [compound 1, 5,5′,6,6′,8,8′-hexahydroxy-2,2′-dipropyl-4H,4′H-[7,9′-bibenzo[g]chromene]-4,4′-dione], the Kd (in [1]; in [2]; at Candida glabrata CYP51 [3]; in test [4]; in test [5]; on Homo sapiens CYP51) was greater than 10 µM in each case. In addition, the Kd at Candida albicans CYP51 was greater than 10 µM; in [6], 60.5 µM; in [7], 55.3 µM; in test [8] it was 67.3 µM; on Candida glabrata CYP51 [9], 93.9 µM; in test [10], greater than 10 µM.
